One assay relates to 20S proteasome subunits. The assay can be described thus: Competitive in situ LC-MS/MS pull-down with alkyne probe S10 and 1 (Figure S1, Table S3). To be noted: 100 nM 1 versus 10 μM S10, RPMI 8226; targets: 20S proteasome subunits β5, β2i, α5, β1, β2. Type of assay: cell-based, human. The protocol:
To determine the targets of cepafungin I in human MM cells through chemoproteomics, a clickable analogue (S10) was designed with alkyne functionality distal to the reactive macrocycle (i.e., at the end of the fatty acid chain). The synthesis of S10 proceeded in a similar fashion as in Scheme 2B except with the tail fragment built from initial alkyne substitution of 6-bromo-1-hexanol. […] To identify these targets, a competitive in situ LC-MS/MS-based pull-down experiment was performed using alkyne probe S10 and 1. Following live cell treatment with just the probe or the probe together with the natural product, alkyne conjugation to biotin-azide and pull-down with streptavidin beads, the probe analogue enriched 764 proteins from RPMI 8226. […] These targets were identified as the 20S proteasome subunits β5, β2i, α5, β1, and β2, highlighting cepafungin’s exceptional selectivity for the proteasome in MM cells (Figure S1 and Table S3). […] The “i” suffix here denotes subunits of the immunoproteasome, which is produced by most cells exposed to oxidative stress or proinflammatory cytokines and also by immune cells at especially high baseline levels.[37] […]
fluorescence was read at A360ex/A460em. […]
in DMSO) or DMSO and cultured for 48 hours. Toxicity was determined using the WST-1 assay (Roche) according to the protocol of the manufacturer. […]

For the next assay, the system named is RPMI 8226 cells. Conditions: ∼3700 proteins quantified, 19 in common; cited from earlier work.

For `CC(C)CCCCCC=CC=CC(=O)NC(C(=O)NC1CC(O)CCNC(=O)C=CC(C)NC1=O)C(C)O` (centres unmarked) [compound 1, cepafungin I], in the assay on 20S proteasome subunits, the “number of enriched proteins competed >50%” value was 5 proteins. The “number of proteins upregulated compared to DMSO control” value in the assay with RPMI 8226 cells was 88 proteins.

Values taken from PMC9951290, “Comprehensive Structure–Activity Relationship Studies of Cepafungin Enabled by Biocatalytic C–H Oxidations” (ACS Central Science, 2023).
